Assay results taken from patent US12661342B2, “Heteroaryl compounds and therapeutic uses thereof in conditions associated with the alteration of the activity of beta-glucocerebrosidase” (GT GAIN THERAPEUTICS SA, priority 2019, dated 2026).

Biological target: T1, β-glucocerebrosidase (Homo sapiens, UniProt P04062, L483P)
T1 construct: host or cells: human Gaucher disease patient fibroblasts GM08760A
T1 sequence (P04062 40-536 L483P): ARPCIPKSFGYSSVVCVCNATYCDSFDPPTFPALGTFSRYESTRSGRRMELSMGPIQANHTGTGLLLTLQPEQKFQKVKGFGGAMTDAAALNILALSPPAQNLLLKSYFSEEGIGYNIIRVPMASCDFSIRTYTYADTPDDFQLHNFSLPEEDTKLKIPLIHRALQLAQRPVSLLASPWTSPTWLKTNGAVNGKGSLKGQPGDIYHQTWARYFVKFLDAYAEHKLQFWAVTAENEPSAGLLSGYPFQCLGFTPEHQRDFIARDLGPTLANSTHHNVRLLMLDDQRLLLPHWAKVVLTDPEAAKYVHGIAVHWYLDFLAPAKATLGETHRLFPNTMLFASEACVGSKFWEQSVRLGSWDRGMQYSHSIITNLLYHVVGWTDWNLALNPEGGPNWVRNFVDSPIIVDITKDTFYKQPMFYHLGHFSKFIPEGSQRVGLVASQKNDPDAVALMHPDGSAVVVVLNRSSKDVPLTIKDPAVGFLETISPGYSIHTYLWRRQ
Test: Enhancement of β-glucocerebrosidase activity measured in Gaucher disease fibroblasts (4-MU-β-D-glucopyranoside substrate, intact cells)
Type: cell-based
Parameters: key: Increase in comparison with non-treated of >2.0 fold is shown as A; Increase in comparison with non-treated of >1.7-2.0 fold is shown as B; Increase in comparison with non-treated of 1.2-1.7 fold is shown as C; D means that no increase compared with non-treated cells was detected in this method
Conditions: GBA fibroblasts bearing L444P (GM08760A, homozygous p.L444P); compound at concentrations between 6 and 50 μM; 4 days incubation
In short: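 Patient fibroblasts homozygous for p.L444P (GM08760A), grown in DMEM/10% FBS and exposed to compound for 4 days. Intact cells then given 4-MU-β-D-glucopyranoside in 0.1 M acetate pH 4, 1 h, 37 °C; stopped at pH 10.7, 4-MU fluorescence ex 340/em 460. Value is fold increase over untreated cells; binned at 6–50 μM.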

| Structure (SMILES) | Range: increase in enzyme activity in comparison with non-treated cells (Enzyme activity assay for compounds of Examples 33-141) | Range: increase in enzyme activity in comparison with non-treated cells (Enzyme activity assay for exemplified compounds) |
| --- | --- | --- |
| COc1ccccc1Nc1cc(N)cc(C(=O)NC2Cc3ccccc3C2)n1 [Example 54, 4-Amino-N-(2,3-dihydro-1H-inden-2-yl)-6-((2-methoxyphenyl)amino)picolinamide] | C (Increase in comparison with non-treated of 1.2-1.7 fold is shown as C) | – |
| CN(C(=O)c1cc(Nc2ccccc2O)cc(N)n1)c1ccccc1 [Example 128, 6-Amino-4-((2-hydroxyphenyl)amino)-N-methyl-N-phenylpicolinamide] | C (Increase in comparison with non-treated of 1.2-1.7 fold is shown as C) | – |
| Nc1cc(Nc2ccccc2O)cc(C(=O)N2CCc3ccccc32)n1 [Example 64, (6-Amino-4-((2-hydroxyphenyl)amino)pyridin-2-yl)(indolin-1-yl)methanone] | C (Increase in comparison with non-treated of 1.2-1.7 fold is shown as C) | – |
| COc1ccccc1Nc1cc(C(=O)N2CCN(c3ccccc3)CC2)nc(N)n1 [Example 34, (2-Amino-6-((2-methoxyphenyl)amino)pyrimidin-4-yl)(4-phenylpiperazin-1-yl)methanone] | D | – |
| Nc1cc(C(=O)NC2Cc3ccccc3C2)cc(Nc2ccccc2O)n1 [Example 47, 2-Amino-N-(2,3-dihydro-1H-inden-2-yl)-6-((2-hydroxyphenyl)amino)isonicotinamide] | C (Increase in comparison with non-treated of 1.2-1.7 fold is shown as C) | – |
| CN(Cc1ccccc1)C(=O)c1cc(N)nc(N[C@H]2CCCC[C@@H]2O)n1 [Example 15, 6-Amino-N-benzyl-2-(((1S,2S)-2-hydroxycyclohexyl)amino)-N-methylpyrimidine-4-carboxamide] | – | D |
| Nc1cc(Nc2ccccn2)cc(C(=O)Nc2ccccc2)n1 [Example 79, 6-Amino-N-phenyl-4-(pyridin-2-ylamino)pyridine-2-carboxamide] | C (Increase in comparison with non-treated of 1.2-1.7 fold is shown as C) | – |
| COc1ccc(Nc2nc(N)c3c(n2)CN(Cc2ccccc2)CC3)cc1 [Example 30, 7-Benzyl-N2-(4-methoxyphenyl)-5,6,7,8-tetrahydropyrido[3,4-d]pyrimidine-2,4-diamine] | – | C (Increase in comparison with non-treated of 1.2-1.7 fold is shown as C) |
| Nc1cc(C(=O)Nc2ccccc2)cc(Nc2ccccc2O)n1 [Example 46, 2-Amino-6-((2-hydroxyphenyl)amino)-N-phenylisonicotinamide] | B (Increase in comparison with non-treated of >1.7-2.0 fold is shown as B) | – |
| Nc1cc(Nc2cccc(F)c2)nc(C(=O)NC2Cc3ccccc3C2)c1 [Example 92, 4-Amino-N-(2,3-dihydro-1H-inden-2-yl)-6-((3-fluorophenyl)amino)picolinamide] | A (Increase in comparison with non-treated of >2.0 fold is shown as A) | – |
| Nc1cc(Nc2cccc(F)c2)nc(C(=O)N2CCN(c3ccccc3)CC2)c1 [Example 105, (4-Amino-6-((3-fluorophenyl)amino)pyridin-2-yl)(4-phenylpiperazin-1-yl)methanone] | B (Increase in comparison with non-treated of >1.7-2.0 fold is shown as B) | – |
| CN(Cc1ccccc1)C(=O)c1nc(N)nc(Nc2cccc(Br)c2)n1 [Example 17, 4-Amino-N-benzyl-6-((3-bromophenyl)amino)-N-methyl-1,3,5-triazine-2-carboxamide] | – | D |
| Nc1cc(Nc2ccccc2F)nc(C(=O)N2Cc3ccccc3C2)c1 [Example 103, (6-(2-Fluorophenylamino)-4-aminopyridin-2-yl)(isoindolin-2-yl)methanone] | C (Increase in comparison with non-treated of 1.2-1.7 fold is shown as C) | – |
| Nc1cc(Nc2ccccc2F)nc(C(=O)Nc2ccccc2)c1 [Example 75, 4-Amino-6-((2-fluorophenyl)amino)-N-phenylpicolinamide] | C (Increase in comparison with non-treated of 1.2-1.7 fold is shown as C) | – |
| CN(C(=O)c1cc(N)nc(Nc2ccccc2O)c1)C1CCc2ccccc2C1 (centres unmarked) [Example 42, 2-Amino-6-((2-hydroxyphenyl)amino)-N-methyl-N-(1,2,3,4-tetrahydronaphthalen-2-yl)isonicotinamide] | C (Increase in comparison with non-treated of 1.2-1.7 fold is shown as C) | – |
| Nc1cc(C(=O)N2Cc3ccccc3C2)nc(Nc2cccc(Cl)c2)n1 [Example 41] | D | – |
| COc1ccccc1Nc1nc(N)nc(C(=O)NC2CCc3ccccc3C2)n1 (centres unmarked) [Example 20, 4-Amino-6-((2-methoxyphenyl)amino)-N-(1,2,3,4-tetrahydronaphthalen-2-yl)-1,3,5-triazine-2-carboxamide] | – | C (Increase in comparison with non-treated of 1.2-1.7 fold is shown as C) |
| Nc1cc(Nc2cccnc2)nc(C(=O)NC2Cc3ccccc3C2)c1 [Example 102, 4-Amino-N-(2,3-dihydro-1H-inden-2-yl)-6-(pyridin-3-ylamino)picolinamide] | C (Increase in comparison with non-treated of 1.2-1.7 fold is shown as C) | – |
| Nc1cc(Nc2ccccc2O)cc(C(=O)N2Cc3ccccc3C2)n1 [Example 58, (6-Amino-4-((2-hydroxyphenyl)amino)pyridin-2-yl)(isoindolin-2-yl)methanone] | B (Increase in comparison with non-treated of >1.7-2.0 fold is shown as B) | – |
| Cc1ccc(Nc2nc(N)cc(C(=O)N(C)c3ccccc3)n2)cc1 [Example 6, 6-Amino-N-methyl-N-phenyl-2-(p-tolylamino)pyrimidine-4-carboxamide] | – | D |
| COc1ccccc1Nc1cc(N)nc(C(=O)N2Cc3ccccc3C2)c1 [Example 59, (6-Amino-4-((2-methoxyphenyl)amino)pyridin-2-yl)(isoindolin-2-yl)methanone] | C (Increase in comparison with non-treated of 1.2-1.7 fold is shown as C) | – |
| Nc1cc(Nc2ccccc2F)nc(C(=O)Nc2ccc3c(c2)OCCO3)c1 [Example 111, 4-Amino-N-(2,3-dihydrobenzo[b][1,4]dioxin-6-yl)-6-((2-fluorophenyl)amino)picolinamide] | A (Increase in comparison with non-treated of >2.0 fold is shown as A) | – |
| Nc1cc(C(=O)NC2Cc3ccccc3C2)nc(Nc2ccccc2O)n1 [Example 13, 6-Amino-N-(2,3-dihydro-1H-inden-2-yl)-2-((2-hydroxyphenyl)amino)pyrimidine-4-carboxamide] | – | C (Increase in comparison with non-treated of 1.2-1.7 fold is shown as C) |
| Nc1cc(Nc2ccccc2O)cc(C(=O)N2CCc3ccccc3C2)n1 [Example 49, (6-Amino-4-((2-hydroxyphenyl)amino)pyridin-2-yl)(3,4-dihydroisoquinolin-2(1H)-yl)methanone] | B (Increase in comparison with non-treated of >1.7-2.0 fold is shown as B) | – |
| Nc1cc(Nc2ccccc2O)nc(C(=O)N2Cc3ccccc3C2)c1 [Example 104, (4-Amino-6-((2-hydroxyphenyl)amino)pyridin-2-yl)(isoindolin-2-yl)methanone] | C (Increase in comparison with non-treated of 1.2-1.7 fold is shown as C) | – |
| COc1ccccc1Nc1cc(N)cc(C(=O)N(C)c2ccccc2)n1 [Example 113, 6-(2-Methoxyphenylamino)-4-amino-N-methyl-N-phenylpyridine-2-carboxamide] | C (Increase in comparison with non-treated of 1.2-1.7 fold is shown as C) | – |
